# Experimental data published in patent US20230201183A1, “METHODS TO […] ENHANCE MULTIPLE […] PROTEOSTASIS […] TO TREAT NEURODEGENERATION AND STORAGE DISEASES” (Northwestern University, priority 2021, published 2023).
# How the values were obtained:
# [1] = tested on: wild-type or isogenic control neurons; experiment: ER stress induction and insoluble GCase in control neurons; type: cell-based, human; settings: 30 nM Tg for 24 hours
# [2] = tested on: SNCA-3X DA neurons and α-syn overexpressing cell lines; experiment: ER stress induction, UPR markers (mRNA/protein); type: cell-based, human; settings: for XBP1-S / mRNA/protein levels of ER chaperones including GRP78, GRP94, and CANX: 30 nM Tg or 50 ng/ml BFA for 24 hours
# Experimental: Total RNA was isolated from cells in a 24 or 12 well format using an RNeasy Mini Prep kit (QIAGEN). cDNA was synthesized by reverse transcriptase PCR (RT-PCR) using the RevertAid First Strand cDNA synthesis kit (Thermo Fisher Scientific). Quantitative PCR was performed on the Applied Biosystems 7500 Fast system using the cDNA and pre-designed TaqMan-primer probes for the target genes. The target mRNA expression was quantified relative to GAPDH or […] using the delta-delta-Ct method, and represented as a fold change.
# lysosomal GCase = experiment: Live-cell lysosomal GCase activity assay; type: cell-based, human; settings: live A53T patient neurons; 10 mM GlcNAc
# Experimental: Live-cell lysosomal GCase activity assay. The procedure and analysis method for the activity assay has been previously described in detail (Cuddy and Mazzulli, 2021). Briefly, one day prior to the assay, cells were treated with 1 mg/ml cascade dextran blue (Life Technologies) in a 96-well plate for 24 hours. This was followed by treatment of cells with DMSO or 200 nM bafilomycin A1 for 1 hour at 37° C. The cells were subjected to 1 hour pulse chase with an artificial fluorescent GCase substrate, 100 ug/ml 5-(pentafluoro-benzoylamino) fluorescein di-ß-D-glucopyranoside (PFB-FDGluc; Life Technologies), at 37° C. The fluorescence signal was measured every 30 minutes for the span of 3-4 hours on a plate reader (Ex=485 nm, Em=530 nm, for the GCase substrates; Ex=400 nm, Em=430 nm for cascade dextran blue). For the analysis, the GCase fluorescence signal was normalized to either lysosomal mass by using cascade dextran blue signal or total cell volume by quantifying CellTag 700 staining signal.
# (§1) The transfection was performed with X-tremeGENE transfection reagent (Roche #6366236001) as described previously (Cuddy et al., 2019). Lentiviral particles were collected from the media and concentrated using Lenti-X concentrator (Clontech, #631232). […] The viral particle number and the number of plated cells was used to calculate the multiplicity of infection (MOI). […]
# A53T iPSn [3] = experiment: Neurofilament toxicity assay (neuron viability); type: cell-based, human
# Experimental: iPSC-neurons 96 well format were fixed in 4% paraformaldehyde in PBS for 20 minutes, followed by incubation in 0.3% Triton X-100 (PBS) for 20 min. The cells were then blocked with Odyssey blocking buffer (Li-Cor) for 1 h. Anti-neurofilament antibody (1:1000, mouse IgG 2H3, Developmental Studies Hybridoma Bank, University of Iowa, Iowa City, Iowa) was incubated overnight in blocking buffer at 4° C., followed by washing in PBS with 0.1% Tween for 20 min. IRdye 800-conjugated anti-mouse IgG antibodies (1:1000 dilution, Li-Cor) was incubated in blocking buffer for 1 hour and CellTag™ 700 (Li-Cor) was also added for normalization. The Cells were washed four times in PBS-0.1% Tween and scanned on an Odyssey infrared imaging system (Li-Cor). Neurofilament intensity was determined by Image Studio software (version 2.1 Li-Cor) and normalized to […].
# as §1, with “(MOI). For GFPT2 Overexpression the A53T neurons were infected at MOI-3 and harvested 2 weeks post-infection.” for “(MOI).”
# A53T iPSn [4] = experiment: α-syn sequential extraction/western blot; type: cell-based, human; settings: 10 mM GlcNAc for 7 days
# Experimental: (§2) Protein extraction was done as described in detail (Stojkovska and Mazzulli, 2021). […] Supernatant was discarded and the cell pellets were subjected to homogenization in 1% Triton X-100 buffer (1% Triton X-100, 20 mM HEPES pH 7.4, 150 mM NaCl, 10% glycerol, 1 mM EDTA, 1.5 mM MgCl2, 1 mM phenylmethanesulfonyl fluoride (PMSF), 50 mM NaF, 2 mM Na orthovanadate, and a protease inhibitor cocktail (Roche diagnostics, https://www.roche.com, #11-836-170-001)) by homogenization. […] Protein band intensities was quantified by the ImageStudio software ver 3.1.
# (§3) The transfection was performed with X-tremeGENE transfection reagent (Roche #6366236001) as described previously (Cuddy et al., 2019). Lentiviral particles were collected from the media and concentrated using Lenti-X concentrator (Clontech, #631232). […] The viral particle number and the number of plated cells was used to calculate the multiplicity of infection (MOI). For GFPT2 Overexpression the A53T neurons were infected at MOI-3 and harvested 2 weeks post-infection. A53T neurons were infected with XBP1^s lentivirus at MOI-1 and harvested 16 days post-infection. Neurons infected with lentivirus expressing GFP was used as control.
# iPSC neurons were supplemented with or without GlcNAc (A3286-sigma) at 10 mM for 7 days in PBS.
# A53T iPSn [5] = experiment: Hex B glycosylation and maturation by western blot; type: cell-based, human
# Experimental: as §2
# as §3, with “. The transfection” for “The transfection”, “days post-infection. […]” for “days post-infection. Neurons infected with lentivirus expressing GFP was used as control.”
# (§4) Neurons were treated with or without 5 ug/ml tunicamycin (EMD Millipore/Calbiochem) for 24 hrs. Cells were extracted in 1% Triton X-100 buffer and analyzed by western blot for Hex B, Con-A, or GFPT2 as described in “Sequential protein extraction and western blotting analysis”. […]
# A53T iPSn [6] = experiment: GCase solubility and maturation (sequential extraction, Endo H, western blot); type: cell-based, human; settings: 10 mM GlcNAc for 7 days
# Experimental: as §2
# Analysis of post-ER GCase: This assay was performed as described in detail (Cuddy and Mazzulli, 2021). Briefly, 40 ug of lysate were subjected to Endoglycosidase H (Endo H) digestion as per the manufacturer's protocol (New England Biolabs, https://www.neb.com) at 37° C. for 2 h. Duplicate samples without enzyme were incubated under the same conditions serving as control (undigested samples). […] Endo H resistant bands migrating 62-64 kDa were measured as post-ER forms and maturation was calculated by quantifying the post-ER/ER ratios. Quantification was performed on Image Studio software (Licor). […] Standard error of the mean values were graphed, analyzed by student's t-test, and p values <0.05 were considered significant. […]
# A53T iPSn [7] = experiment: N-glycosylated proteins by Con A-biotin western blot; type: cell-based, human
# Experimental: as §2
# as §3, with “. The transfection” for “The transfection”, “days post-infection. […]” for “days post-infection. Neurons infected with lentivirus expressing GFP was used as control.”
# as §4
# isogenic control iPSn = experiment: Hex B glycosylation by western blot; type: cell-based, human; settings: control cells; tunicamycin
# Experimental: as §2
# (§5) Neurons were treated with or without 5 ug/ml tunicamycin (EMD Millipore/Calbiochem) for 24 hrs. Cells were extracted in 1% Triton X-100 buffer and analyzed by western blot for Hex B, Con-A, or GFPT2 as described in “Sequential protein extraction and western blotting analysis”. For mRNA measurement, total RNA was extracted and isolated as described in “Measurement of mRNA.” cDNA was synthesized and subjected to real-time PCR using Taqman-primer probe sets for GFPT2, XBP1U, and GRP78.
# control iPSn = experiment: N-glycosylated proteins by Con A-biotin western blot; type: cell-based, human; settings: tunicamycin 5 ug/ml, 24 hours
# Experimental: as §2, §5
# wt iPSn = experiment: Quantitative RT-PCR mRNA analysis; type: cell-based, human; settings: tunicamycin 5 ug/ml, 24 h
# Experimental: (§6) Measurement of RNA. Total RNA was extracted and isolated using the PureLink RNA Mini Kit (Thermofisher Scientific). cDNA was synthesized using the RevertAid First Strand cDNA Synthesis Kit (Thermofisher Scientific). Real-time PCR was performed on an Applied Biosystems 7500 Fast system using pre-designed Taqman-primer probe sets: DPAGT1 (Hs00609752_m1), GFPT2 (Hs01049570_m1), XBP1U (Hs02856596_m1), XBP1s (Hs03929085_g1), GRP78 (Hs99999174_m1), HSP90B1/GRP94 (Hs00427665_g1), GBA1 (Hs00164683_m1), HexB (Hs01077594_m1) and ACTB (Hs01060665_g1). The quantifications represent the fold change of target mRNA expression normalized to beta-actin (ACTB) levels by delta-Ct method. The values are mean and s.e.m of biological replicates (n=3-6) with two technical replicates for each.
# as §5
# isogenic controls = experiment: GFPT2 western blot; type: cell-based, human; settings: isogenic controls of SNCA-3x; tunicamycin
# Experimental: as §2, §5
# SNCA-3x iPSn = experiment: GFPT2 western blot; type: cell-based, human; settings: tunicamycin
# Experimental: as §2, §5
# A53T iPSn [8] = experiment: Quantitative RT-PCR mRNA analysis; type: cell-based, human
# Experimental: as §6
# . The transfection was performed with X-tremeGENE transfection reagent (Roche #6366236001) as described previously (Cuddy et al., 2019). Lentiviral particles were collected from the media and concentrated using Lenti-X concentrator (Clontech, #631232). […]
# as §4
# [9] = tested on: midbrain neurons from a GD (N370S/84GG) and a PD patient that harbors a GBA1 mutation (N370S/wt); experiment: GCase maturation and α-syn western blot in GBA1 mutant patient neurons; settings: GD (N370S/84GG) and GBA-PD (N370S/wt) neurons; two weeks
molecule,measurement,setting,value
C/C=C(/C)C(=O)O[C@H]1C(C)=C2[C@H]([C@@H]1OC(=O)CCCCCCC)[C@@](C)(OC(C)=O)C[C@H](OC(=O)CCC)[C@@]1(O)[C@H]2OC(=O)[C@@]1(C)O [Tg],GRP78 expression (ER stress),[1],increased GRP78 expression
same,XBP1-S,[2],dramatic upregulation of XBP1-S
same,"mRNA/protein levels of ER chaperones including GRP78, GRP94, and CANX",[2],significantly increased mRNA/protein levels of ER chaperones
same,phospho-eIF2α,"[2]; isogenic controls and SNCA-3X DA neurons, 30 nM Tg",increased phospho-eIF2α to a similar degree
"CC(=O)NC1C(O)[C@H](O)C(CO)O[C@H]1O (stereo partly drawn) [GlcNAc, β-D-(acetylamino)-2-deoxy-glucopyranose]",increase of GCase activity levels,lysosomal GCase,~2 fold
same,neuron viability (neurofilament / neurite content),A53T iPSn [3],improved neuron viability
same,reduction in pathological α-syn,A53T iPSn [4],~75%
same,glycosylated and mature forms of Hex B,A53T iPSn [5]; 10 mM GlcNAc for 7 days,enhanced the glycosylated and mature forms of Hex B
same,"increase in the levels of mature, soluble GCase",A53T iPSn [6],2 fold
same,N-glycosylated proteins (Con A),A53T iPSn [7],completely restored the levels of N-glycosylation to control levels
tunicamycin,Hex B glycosylation,isogenic control iPSn,blocked Hex B glycosylation
same,reduction of N-glycans,control iPSn,~50%
same,upregulation of GFPT2 mRNA,wt iPSn,~2 fold
same,Hex B response to tunicamycin,A53T iPSn [5]; A53T iPSn compared to controls,reduced response
same,elevation of GFPT2 protein,isogenic controls,60%
same,GFPT2 protein,SNCA-3x iPSn,no effect
same,UPR-responsive transcripts XBP1 and GRP78,"A53T iPSn [8]; A53T iPSn versus Corr, tunicamycin",less responsive
same,upregulation of GFPT2 mRNA,"A53T iPSn [8]; A53T iPSn, tunicamycin 5 ug/ml, 24 h",~1.2 fold
same,N-glycosylated proteins (Con A),A53T iPSn [7],no effect
"C#Cc1cccc(-c2cc(=O)n(C)c3ccc([C@](O)(c4ccc(Cl)cc4)c4cncn4C)cc23)c1 [FTI, 6-[(R)-(4-chlorophenyl)hydroxy(1-methyl-1H-imidazol-5-yl)methyl]-4-(3-ethynylphenyl)-1-methyl-2(1H)-Quinolinone]",GCase maturation,[9],minimal effects
same,α-syn levels,[9],minimal effects
C[C@H]1CCC/C=C/[C@@H]2C[C@H](O)C[C@H]2[C@H](O)/C=C/C(=O)O1 [BFA],XBP1-S,[2],dramatic upregulation of XBP1-S
same,"mRNA/protein levels of ER chaperones including GRP78, GRP94, and CANX",[2],significantly increased mRNA/protein levels of ER chaperones
